1 compound from article PMC7006784, “The combination of salvianolic acid A with latamoxef completely protects mice against lethal pneumonia caused by methicillin-resistant Staphylococcus aureus” (Emerging Microbes & Infections, 2020) can be followed below.

Each structure is given as a SMILES string. Marks after values point to notes of the source that are not given here.

For assay [1], the target named is T1, SrtA (Staphylococcus aureus, UniProt Q2FV99).
T1 construct: The gene encoding SrtA (lacking the N-terminal transmembrane domain (N1–59)); made in house
Put plainly: SrtA activity assay (FRET). It counts as biochemical, S. aureus. As to the method:
The SrtA activity assay was performed by using FRET as described previously. Briefly, a mixture of 4 μM recombinant SrtA and different concentrations of Sal A in a 300 μl reaction volume (50 mM Tris·HCl, 150 mM NaCl and 5 mM CaCl2, pH 7.5) was incubated for 1 h at 37°C. Then, 10 μM substrate peptide was added and incubated for an additional hour. Wells containing all constituents except SrtA served as blank controls. The fluorescence was measured with a microplate reader at λex = 350 nm and λem = 495 nm.

The next assay deals with TNF-α, IL-6, IL-1β. Put plainly: Pneumonia model, cytokines in BALF (ELISA). It counts as in vivo, C57BL/6J mice. The note with it: mice, 1 × 10^9 CFU i.n.; 100 mg/kg s.c.; 24 h after infection. As to the method:
For the determinations of the levels of TNF-α, IL-6, IL-1β, 24 h after inoculation with bacteria, the lungs of anaesthetized mice were lavaged with a tracheal cannula according to a procedure described previously. The lavage samples were centrifuged for 10 min at 500 × g and 4°C. The supernatant was collected, and the amounts of cytokines were quantified using commercial enzyme-linked immunosorbent assay (ELISA) kits (eBioscience, San Diego, CA) according to the manufacturer’s protocols. All animal experiments were replicated at least twice, with essentially identical results.
On the technique in general: ELISA stands for enzyme-linked immunosorbent assay.

Assay [2] has as its target T1, SrtA. Description: Reversible inhibition assay of SrtA. The class given is biochemical, S. aureus. The note with it: after incubation at 10 × IC50 and dilution. As to the method:
To evaluate the reversible inhibition by Sal A of SrtA, 100 μl of purified SrtA was incubated with Sal A at a final concentration equal to 10-fold the IC50 for 1 h at 37°C. Then, 9.9 ml reaction buffer was added. Subsequently, 10 μl of the substrate peptide was added to the 190 μl diluted mixture at a final concentration of 10 μM. The fluorescence intensity was measured using a microplate reader at λex = 350 nm and λem = 495 nm. Triplicate measurements were obtained for each data point, and the data are reported as the mean ± SEM.

The subject of another assay is T2, WT-SrtA.
T2 construct: The gene encoding SrtA (lacking the N-terminal transmembrane domain (N1–59)); 6xHis (N); made in house
Description: Fluorescence quenching assay, WT-SrtA. It counts as binding, S. aureus. As to the method:
(§1) The fluorescence quenching assay was performed as previously described. Briefly, purified SrtA and mutant protein were diluted to 500 ng/ml with PBS. A total of 2.5 ml diluted protein solution was mixed with Sal A at different concentrations ranging from 0 to 4.5 μg. After incubation for 10 min, the fluorescence spectra of the mixed solutions were measured using a fluorescence spectrophotometer (RF5301, Japan). For the fluorescence measurement, the excitation and emission slits were set at 5.0 nm, the excitation wavelength was set at 280 nm, and fluorescence emission spectra in the range of 290–500 nm were scanned; the fluorescence intensity at 340 nm was recorded. All assays were performed in triplicate.

In another assay the test system is S. aureus USA300. Put plainly: Pneumonia model, survival. The settings on record: mice, 2 × 10^9 CFU i.n.; s.c. 100 mg/kg Sal A and/or 75 mg/kg latamoxef every 12 h, 96 h; PBS control 10%. It counts as in vivo, C57BL/6J mice. As to the method: The animal experiments were performed using 6- to 8-week-old female C57BL/6J mice obtained from the Experimental Animal Center of Jilin University and conducted according to the guidelines of the Animal Care and Use Committee of Jilin University. The mouse S. aureus pneumonia model was generated as described previously. Briefly, the mice were anaesthetized with ether and inoculated with 30 μl bacterial resuspension via the left nare. The mice were then held upright to allow the bacteria to be inhaled into the lungs. For the survival assessment, groups of 10 mice were challenged with 2 × 10^9 CFU S. aureus. One hour after intranasal inoculation, the mice were subcutaneously injected with 100 mg/kg of Sal A, 75 mg/kg of latamoxef or 100 mg/kg of Sal A plus 75 mg/kg of latamoxef at 12 h intervals, and survival was assessed for 96 h. For the bacterial load, histopathological, and bronchoalveolar lavage fluid (BALF) experiments, mice were inoculated with 1 × 10^9 CFU S. aureus. The mice were then given a subcutaneous injection of 100 mg/kg Sal A, 75 mg/kg latamoxef or a combination of 100 mg/kg Sal A and 75 mg/kg every 12 h. After 24 h, the left lung of each anaesthetized mouse was aseptically excised and homogenized, and the CFU was determined by serial dilutions. […]

Assay [3] relates to SrtA. Put plainly: Western blot of SrtA expression. The class given is cell-based, S. aureus. The settings on record: 256, 128, 64, or 32 μg/ml, Western blot with grayscale analysis. The procedure: The dissolved cell wall proteins and cytoplasmic membranes were obtained according to a previously reported method. Equal volumes of protein extract were separated using a 12% SDS-PAGE gel, and the proteins were transferred onto polyvinylidine difluoride membranes (Wako Pure Chemical Industries, Ltd., Osaka, Japan). After blotting, the membrane was blocked with 5% BSA for 2 h and probed with primary antibodies against S. aureus SrtA overnight at 4°C. Next, the membrane was washed and incubated with HRP-labelled goat anti-rabbit IgG. After washing again with PBS, the immunoreactive bands were visualized by an ECL Western blot detection system (GE Healthcare, UK). The primary antibodies against S. aureus SrtA were produced in-house by our team members. The secondary HRP-labelled goat anti-rabbit IgG antibody was obtained from Proteintech (Chicago, USA).
In general terms: In western blotting, separated proteins are transferred to a membrane and probed.

A further assay has as its system A549 cells. Description: Invasion assay (internalization of S. aureus into A549 cells). It counts as cell-based. The settings on record: CFU count. The procedure: The assay of the internalization of S. aureus into A549 cells was performed as described. Briefly, 3 × 10^5 A549 cells were plated in each well of a 24-well plate and incubated at 37°C in 5% CO2 for 12 h. S. aureus was grown in BHI broth with or without Sal A to an OD600 of 1.0. Then, the bacterial suspension was added to the plate and incubated for 1 h. The bacterial suspension was discarded, and the A549 cells were washed three times with PBS and treated with DMEM containing 300 μg/ml gentamycin. After incubation for 2 h, the plates were washed three times, and the cells were lysed with sterile distilled water. The lysates were diluted 100-fold in PBS and spread onto BHI agar plates in triplicate. The plates were incubated at 37°C for 12 h, and the number of colony-forming unit (CFU) was determined by manual counting.

Another assay relates to T3, R197A-SrtA.
T3 construct: The gene encoding SrtA (lacking the N-terminal transmembrane domain (N1–59)); 6xHis (N); made in house
Put plainly: Fluorescence quenching assay, R197A-SrtA. It counts as binding, S. aureus. The settings on record: fluorescence spectroscopy quenching. The procedure: as §1

T1 sequence (Q2FV99 60-206): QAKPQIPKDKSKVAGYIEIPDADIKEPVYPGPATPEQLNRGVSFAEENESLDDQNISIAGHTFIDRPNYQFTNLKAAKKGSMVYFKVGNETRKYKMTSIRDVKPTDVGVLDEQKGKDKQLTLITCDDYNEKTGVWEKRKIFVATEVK

As usually defined, the IC50 is the concentration that inhibits the measured activity by half. Higher therefore signals weaker potency. Consider `O=C(/C=C/c1ccc(O)c(O)c1/C=C/c1ccc(O)c(O)c1)O[C@H](Cc1ccc(O)c(O)c1)C(=O)O` [Sal A, (2R)-3-(3,4-Dihydroxyphenyl)-2-[(E)-3-[2-[(E)-2-(3,4-dihydroxyphenyl)ethenyl]-3,4-dihydroxyphenyl]prop-2-enoyl]oxypropanoic acid], for which the half-maximal inhibitory concentration (IC50) against SrtA [1] was 11.6 µM. Moreover, the “levels of TNF-α, IL-6, and IL-1β in the BALF compared with the control group” value with TNF-α, IL-6, IL-1β is given as “significantly downregulated”. The “SrtA activity recovered in comparison with the control group” value on SrtA [2] is recorded as 88 ± 3.21%. In addition, the KA in the assay with WT-SrtA (fluorescence quenching, WT SrtA) is 58000 L/mol; in the assay on WT-SrtA (fluorescence spectroscopy quenching, WT-SrtA), 5.8 (1 × 10^4) l/mol; with R197A-SrtA, 2.22 (1 × 10^4) l/mol. Further, the survival rate with S. aureus USA300 is 80%. Further, the “expression of SrtA” value in the assay with SrtA [3] is recorded as “did not impact the expression”. Further, the “number of bacteria entering the cells compared to the control group” value with A549 cells is on record as “significant reduction”.
